This note sets out measurements from patent EP4615450B1 (priority 2023, dated 2024).

For the experiment, the system named is SARS-CoV2. In words: PCR test (Ct value) in patients, three successive lozenges (Beispiel 2). The class given is in vivo, Patienten. As to conditions: result in words; over time with successive administration of several lozenges, also versus placebo. From the text: Darüber hinaus wird die antivirale Wirksamkeit einer erfindungsgemäß einsetzbaren Zusammensetzung in Form der in Beispiel 1 beschriebenen Octenidindihydrochlorid-Lutschtablette an weiteren Patienten untersucht. Die Patienten weisen im Hinblick auf SARS-CoV2 vor Verabreichung der Lutschtabletten einen positiven PCR-Test auf (in der nachfolgenden Tabelle 3 unter "Ct0" angegeben).
Die Patienten erhalten insgesamt jeweils drei Octenidindihydrochlorid-Lutschtabletten in definierter zeitlicher Abfolge. Die Lutschzeit beträgt für eine jeweilige Tablette 15 Minuten, wobei jeweils nach jeweils weiteren 15 Minuten ein PCR-Test durchgeführt wird. Der PCR-Test nach Verabreichung der ersten Octenidindihydrochlorid-Lutschtablette wird somit 30 Minuten nach erfolgter Verabreichung durchgeführt (in der nachfolgenden Tabelle 3 unter "Ct1" angeführt).
Die zweite Octenidindihydrochlorid-Lutschtablette wird 2,5 Stunden nach Verabreichung der ersten Lutschtablette verabreicht, wobei der diesbezügliche PCR-Test 3 Stunden nach Verabreichung der ersten Lutschtablette und 30 Minuten nach Verabreichung der zweiten Lutsch-tablette durchgeführt wird (in der nachfolgenden Tabelle 3 unter "Ct2" angeführt). […]

For `CCCCCCCCNc1cc[n+](CCCCCCCCCC[n+]2ccc(NCCCCCCCC)cc2)cc1.[Cl-].[Cl-]` [Octenidindihydrochlorid, 1,1'-(1,10-Decandiyl)bis[4-(octylamino)pyridinium]-dichlorid], the Ct-Wert entry is reported as “deutliche und nachhaltige Zuname des jeweiligen Ct-Werts”.
